Measured values: article PMC12720774, “Detergents alter the stability and lipid binding properties of the CD1d immunoreceptor” (Protein Science : A Publication of the Protein Society, 2025)
Values joined by “and” are separate entries in the source; they are usually repeats but may differ in a detail not shown here. Identical values can stand only once. Like-named read-outs stand apart in the source and are kept apart here.

How the values were obtained:
[1] = target: T1, recombinant human CD1d ectodomain/β2m complex (hCD1d) (Homo sapiens, UniProt P15813+P61769); assay: Intrinsic tryptophan fluorescence (ITF) binding assay
T1 construct: TEV protease cleavage site ENLYFQS (C); BirA biotinylation site (C); His7 (C); made in house; host or cells: TurboCHO cells (GenScript)
Experimental: For ITF assays, the concentration of hCD1d was kept constant, and intrinsic Trp fluorescence (excitation at 285 nm, emission at 335 nm) was measured as a function of increasing detergent concentration (Fossum et al., [2023]) (Figure S2). The change in relative fluorescence intensity (F − F 0/F 0) provides an indication of binding. […] This was due to limited detergent solubility and decreased hCD1d stability in the presence of a large excess of detergent (see below). […] SDS was the exception, for which Trp fluorescence of hCD1d decreased with added detergent. This could indicate a unique conformational change or destabilization of the protein.
ITF spectra were recorded from 300 to 500 nm using a Horiba FL3‐21 Fluorometer with the excitation wavelength of 285 nm and excitation/emission slits of 6.2 nm. Fluorescence spectra of 50 to 100 nM hCD1d were acquired in the absence and presence of detergents in 1X PBS pH 7.4 at 25°C. Prior to data acquisition, hCD1d and detergent or lipid samples were incubated at 37°C overnight (~12 h) to simulate in vitro and in vivo loading conditions. […] For 18:1 LPC experiments, fluorescence spectra of 100 nM hCD1d were acquired in the absence and presence of 18:1 LPC in 1X PBS pH 7.4 at 25°C. […] For all ITF experiments, the change in fluorescence signal (F − F 0/F 0) was determined at 335 nm. Three replicates were performed, and data are presented as the mean ± standard deviation (n = 3). K D values were fitted with non‐linear regression in GraphPad Prism v10.1.

AF647‐labeled hCD1d = target: T2, AF647‐labeled hCD1d (Homo sapiens, UniProt P15813+P61769); assay: Microscale thermophoresis (MST) binding assay
T2 construct: TEV protease cleavage site ENLYFQS (C); BirA biotinylation site (C); His7 (C); made in house; host or cells: TurboCHO cells (GenScript)
Text: The experimental limitations of ITF, such as low instrument sensitivity, high sample consumption, signal overlap with some ligands, and low throughput (Fossum et al., [2023]), made it necessary to employ alternative, complementary assays to quantify detergent binding to hCD1d. […] MST measures the diffusion of fluorescent molecules in response to microscopic temperature gradients (Seidel et al., [2013]). When a protein forms a complex with a ligand, changes in hydrodynamic properties, charge, or solvation energy alter its thermophoretic behavior, allowing detection of binding events. To perform MST experiments, Alexa Fluor 647 (AF647) dye was covalently attached to the primary amines of hCD1d via standard N‐hydroxysuccinimide coupling chemistry (Anderson et al., [1964]). The concentration of AF647‐hCD1d was kept constant, and the change in MST signal was measured as a function of increasing detergent concentration (Figure S3). Like ITF, any lipid or detergent that destabilizes CD1 can also alter the MST signal since unfolding changes the protein's Stokes radius and its thermophoretic behavior. […] This is why we compare MST results with ITF and nanoDSF, as described below.
For MST, hCD1d was fluorescently labeled with AF647‐NHS Ester (Invitrogen #A20006). Briefly, a 10 mM stock of AF647‐NHS was prepared in anhydrous DMSO. Then, 100 μL of 50 μM hCD1d in 1X PBS pH 7.4 was mixed with 1 μL of 10 mM AF647‐NHS (1:2 molar ratio of protein: dye). The mixture was allowed to react for 1 h in the dark at 25°C. Unreacted dye was removed from the protein–dye conjugate by performing size exclusion chromatography in the dark with a Superdex 200 Increase 10/300 GL column at a flow rate of 0.5 mL/min in SEC buffer (100 mM NaCl, 20 mM sodium phosphate, pH 7.2). The degree of labeling was determined by a NanoDrop spectrophotometer at A647 nm (dye absorbance) and A280 nm (hCD1d absorbance). The degree of labeling was determined from the ratio of dye concentration to protein concentration. The degree of labeling was ~75%.
MST experiments were performed using a Monolith NT.115 instrument (NanoTemper Technologies) using Monolith standard capillaries and the red excitation laser setup. The following settings were applied for all MST experiments: excitation power: 30%–50%, MST power: medium, before MST time: 3 s, MST on time (IR laser): 20 seconds, and after MST time: 1 s. MST measurements were analyzed using the Monolith Affinity Analysis software v2.3 and exported for plotting in GraphPad Prism v10.1. Three replicates were performed, and data are presented as the mean ± standard deviation (n = 3).
MST measurements of 100 nM AF647‐hCD1d were acquired in the absence and presence of detergents in 1X PBS pH 7.4 at 25°C. Prior to data acquisition, hCD1d and detergent or lipid samples were incubated at 37°C overnight (~12 h) to simulate in vitro and in vivo loading conditions. […] For 18:1 LPC experiments: MST data of 100 nM AF647‐hCD1d were acquired in the absence and presence of 18:1 LPC in 1X PBS pH 7.4 at 25°C.

[2] = approximate, ref Anatrace catalogue, cited from earlier work
[3] = Figure 5A, detergent binding to hCD1d, read-out: ITF - Kd (uM) average
[4] = detergent with 100 nM hCD1d, 25°C, 1X PBS pH 7.4, apparent, read-out: K D (ITF)
[5] = Figure 5B, detergent binding to hCD1d, read-out: MST - Kd (uM) average
[6] = detergent with 100 nM AF647‐labeled hCD1d, 25°C, apparent, read-out: K D (MST)

T2 sequence (P61769+P15813 fused): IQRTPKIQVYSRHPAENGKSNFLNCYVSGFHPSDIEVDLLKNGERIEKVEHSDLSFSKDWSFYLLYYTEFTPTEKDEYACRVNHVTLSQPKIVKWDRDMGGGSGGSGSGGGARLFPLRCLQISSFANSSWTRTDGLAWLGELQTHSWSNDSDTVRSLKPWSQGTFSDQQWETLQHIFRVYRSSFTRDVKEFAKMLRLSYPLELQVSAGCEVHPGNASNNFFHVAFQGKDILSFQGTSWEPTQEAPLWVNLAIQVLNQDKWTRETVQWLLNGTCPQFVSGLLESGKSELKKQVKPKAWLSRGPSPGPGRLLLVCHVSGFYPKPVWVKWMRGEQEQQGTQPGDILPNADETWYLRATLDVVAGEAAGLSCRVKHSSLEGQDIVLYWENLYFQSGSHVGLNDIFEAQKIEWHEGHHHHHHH
T1 sequence (P61769+P15813 fused): as above

Tween 80
F-F0/F0 (rep 1-3) ([1]; 6.1035e-9 M detergent): 0 | F-F0/F0 (rep 1-3) ([1]; 7.8125e-7 M detergent): 0.1677 and 0.1078 and 0.1575 | F-F0/F0 (rep 1-3) ([1]; 1.5625e-6 M detergent): 0.2804 and 0.1624 and 0.168 | F-F0/F0 (rep 1-3) ([1]; 3.125e-6 M detergent): 0.6451 and 0.4306 and 0.4698 | F-F0/F0 (rep 1-3) ([1]; 6.25e-6 M detergent): 0.9699 and 0.8276 and 0.7611 | F-F0/F0 (rep 1-3) ([1]; 1.25e-5 M detergent): 0.863 and 0.6745 and 0.8384 | F-F0/F0 (rep 1-3) ([1]; 2.5e-5 M detergent): 1.041 and 0.837 and 0.8177 | F-F0/F0 (rep 1-3) ([1]; 5e-5 M detergent): 1.186 and 0.8687 and 0.9274 | F-F0/F0 (rep 1-3) ([1]; 0.0001 M detergent): 1.309 and 1.057 and 0.8857 | F-F0/F0 (rep 1-3) ([1]; 0.0002 M detergent): 1.646 and 1.2423 and 1.107 | Kd [1, 3]: 4.59 µM | Kd [1, 4]: 4.6 ± 0.9 µM | Fnorm (rep 1-3) (AF647‐labeled hCD1d; 6.10352e-9 M detergent): 805.067 ‰ and 809.857 ‰ and 804.507 ‰ | Fnorm (rep 1-3) (AF647‐labeled hCD1d; 1.2207e-8 M detergent): 806.458 ‰ and 809.351 ‰ and 805.026 ‰ | Fnorm (rep 1-3) (AF647‐labeled hCD1d; 2.44141e-8 M detergent): 805.306 ‰ and 809.655 ‰ and 805.09 ‰ | Fnorm (rep 1-3) (AF647‐labeled hCD1d; 4.88281e-8 M detergent): 807.116 ‰ and 806.609 ‰ and 806.1 ‰ | Fnorm (rep 1-3) (AF647‐labeled hCD1d; 9.76563e-8 M detergent): 804.905 ‰ and 807.619 ‰ and 802.759 ‰ | Fnorm (rep 1-3) (AF647‐labeled hCD1d; 1.95313e-7 M detergent): 804.684 ‰ and 807.405 ‰ and 803.094 ‰ | Fnorm (rep 1-3) (AF647‐labeled hCD1d; 3.90625e-7 M detergent): 805.673 ‰ and 808.266 ‰ and 805.393 ‰ | Fnorm (rep 1-3) (AF647‐labeled hCD1d; 7.8125e-7 M detergent): 808.872 ‰ and 807.822 ‰ and 807.967 ‰ | Fnorm (rep 1-3) (AF647‐labeled hCD1d; 1.5625e-6 M detergent): 807.024 ‰ and 810.305 ‰ and 805.453 ‰ | Fnorm (rep 1-3) (AF647‐labeled hCD1d; 3.125e-6 M detergent): 820.597 ‰ and 825.116 ‰ and 819.282 ‰ | Fnorm (rep 1-3) (AF647‐labeled hCD1d; 6.25e-6 M detergent): 847.228 ‰ and 846.294 ‰ and 841.909 ‰ | Fnorm (rep 1-3) (AF647‐labeled hCD1d; 1.25e-5 M detergent): 846.069 ‰ and 855.71 ‰ and 840.031 ‰ | Fnorm (rep 1-3) (AF647‐labeled hCD1d; 2.5e-5 M detergent): 844.894 ‰ and 848.667 ‰ and 837.578 ‰ | Fnorm (rep 1-3) (AF647‐labeled hCD1d; 5e-5 M detergent): 846.685 ‰ and 845.769 ‰ and 838.247 ‰ | Fnorm (rep 1-3) (AF647‐labeled hCD1d; 0.0001 M detergent): 846.112 ‰ and 846.019 ‰ and 837.99 ‰ | Fnorm (rep 1-3) (AF647‐labeled hCD1d; 0.0002 M detergent): 847.908 ‰ and 844.822 ‰ and 840.824 ‰ | Kd (AF647‐labeled hCD1d; [5]): 3.24 µM | Kd (AF647‐labeled hCD1d; [6]): 3.2 ± 0.1 µM | CMC [2]: 12 µM | CMC ([2]; weight/volume): 0.0016%

Tween 20
F-F0/F0 (rep 1-3) ([1]; 3.0518e-8 M detergent): 0 | F-F0/F0 (rep 1-3) ([1]; 7.8125e-6 M detergent): 0.397 and 0.3783 and 0.411 | F-F0/F0 (rep 1-3) ([1]; 1.5625e-5 M detergent): 0.321 and 0.292 and 0.428 | F-F0/F0 (rep 1-3) ([1]; 3.125e-5 M detergent): 0.321 and 0.2971 and 0.409 | F-F0/F0 (rep 1-3) ([1]; 6.25e-5 M detergent): 0.469 and 0.4298 and 0.387 | F-F0/F0 (rep 1-3) ([1]; 0.000125 M detergent): 0.384 and 0.3339 and 0.39 | F-F0/F0 (rep 1-3) ([1]; 0.00025 M detergent): 0.511 and 0.3507 and 0.554 | F-F0/F0 (rep 1-3) ([1]; 0.0005 M detergent): 0.462 and 0.3634 and 0.631 | Kd [1, 3]: 4.9 µM | Kd [1, 4]: 4.9 ± 0.7 µM | Fnorm (rep 1-3) (AF647‐labeled hCD1d; 3.05176e-8 M detergent): 810.612 ‰ and 815.192 ‰ and 809.256 ‰ | Fnorm (rep 1-3) (AF647‐labeled hCD1d; 6.10352e-8 M detergent): 813.29 ‰ and 812.34 ‰ and 811.415 ‰ | Fnorm (rep 1-3) (AF647‐labeled hCD1d; 1.2207e-7 M detergent): 817.136 ‰ and 816.199 ‰ and 816.479 ‰ | Fnorm (rep 1-3) (AF647‐labeled hCD1d; 2.44141e-7 M detergent): 815.645 ‰ and 816.365 ‰ and 812.483 ‰ | Fnorm (rep 1-3) (AF647‐labeled hCD1d; 4.88281e-7 M detergent): 818.589 ‰ and 818.547 ‰ and 817.485 ‰ | Fnorm (rep 1-3) (AF647‐labeled hCD1d; 9.76563e-7 M detergent): 822.035 ‰ and 829.676 ‰ and 823.26 ‰ | Fnorm (rep 1-3) (AF647‐labeled hCD1d; 1.95313e-6 M detergent): 824.959 ‰ and 826.615 ‰ and 828.828 ‰ | Fnorm (rep 1-3) (AF647‐labeled hCD1d; 3.90625e-6 M detergent): 831.241 ‰ and 838.502 ‰ and 830.859 ‰ | Fnorm (rep 1-3) (AF647‐labeled hCD1d; 7.8125e-6 M detergent): 839.917 ‰ and 838.414 ‰ and 840.568 ‰ | Fnorm (rep 1-3) (AF647‐labeled hCD1d; 1.5625e-5 M detergent): 845.364 ‰ and 842.629 ‰ and 839.392 ‰ | Fnorm (rep 1-3) (AF647‐labeled hCD1d; 3.125e-5 M detergent): 839.617 ‰ and 847.737 ‰ and 840.958 ‰ | Fnorm (rep 1-3) (AF647‐labeled hCD1d; 6.25e-5 M detergent): 842.166 ‰ and 843.948 ‰ and 838.707 ‰ | Fnorm (rep 1-3) (AF647‐labeled hCD1d; 0.000125 M detergent): 841.26 ‰ and 840.691 ‰ and 839.447 ‰ | Fnorm (rep 1-3) (AF647‐labeled hCD1d; 0.00025 M detergent): 843.661 ‰ and 845.01 ‰ and 840.579 ‰ | Fnorm (rep 1-3) (AF647‐labeled hCD1d; 0.0005 M detergent): 843.68 ‰ and 846.334 ‰ and 839.195 ‰ | Fnorm (rep 1-3) (AF647‐labeled hCD1d; 0.001 M detergent, 100 nM AF647‐hCD1d): 842.084 ‰ and 846.496 ‰ and 844.53 ‰ | Kd (AF647‐labeled hCD1d; [5]): 1.79 µM | Kd (AF647‐labeled hCD1d; [6]): 1.8 ± 0.5 µM | CMC [2]: 59 µM | CMC ([2]; weight/volume): 0.0072%
